Experiments:
[1] = molecular target: T1, Muscarinic acetylcholine receptor M1 (Homo sapiens, UniProt P11229); assay type: functional
T1 sequence (P11229 whole entry): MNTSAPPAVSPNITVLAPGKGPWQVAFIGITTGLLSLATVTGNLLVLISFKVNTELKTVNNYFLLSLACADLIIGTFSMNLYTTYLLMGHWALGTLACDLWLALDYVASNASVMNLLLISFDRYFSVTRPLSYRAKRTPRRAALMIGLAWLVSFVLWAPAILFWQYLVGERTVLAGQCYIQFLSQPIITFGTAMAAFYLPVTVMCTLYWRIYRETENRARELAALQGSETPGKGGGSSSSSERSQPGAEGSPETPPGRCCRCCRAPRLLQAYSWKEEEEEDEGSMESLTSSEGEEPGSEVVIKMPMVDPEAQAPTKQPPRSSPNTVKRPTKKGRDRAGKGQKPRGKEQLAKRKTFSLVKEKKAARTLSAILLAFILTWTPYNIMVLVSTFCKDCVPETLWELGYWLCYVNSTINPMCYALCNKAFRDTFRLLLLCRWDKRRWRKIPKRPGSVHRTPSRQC

[2] = molecular target: T2, Muscarinic acetylcholine receptor M2 (Homo sapiens, UniProt P08172)
T2 sequence (P08172 whole entry): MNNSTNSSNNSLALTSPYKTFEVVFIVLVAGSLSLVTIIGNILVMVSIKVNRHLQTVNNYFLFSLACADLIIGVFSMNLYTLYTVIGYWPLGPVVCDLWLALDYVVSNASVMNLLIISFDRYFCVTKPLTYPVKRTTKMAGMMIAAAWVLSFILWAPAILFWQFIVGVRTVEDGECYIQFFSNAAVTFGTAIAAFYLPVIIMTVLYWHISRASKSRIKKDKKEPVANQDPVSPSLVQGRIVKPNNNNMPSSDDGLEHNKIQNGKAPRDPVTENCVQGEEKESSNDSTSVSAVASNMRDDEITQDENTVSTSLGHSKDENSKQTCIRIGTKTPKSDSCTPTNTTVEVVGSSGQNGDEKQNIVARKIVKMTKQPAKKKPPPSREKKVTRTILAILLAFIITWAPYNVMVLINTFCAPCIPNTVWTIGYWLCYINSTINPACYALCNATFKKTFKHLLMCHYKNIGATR

[3] = molecular target: Sodium-dependent dopamine transporter (Homo sapiens, UniProt Q01959)
[4] = molecular target: T3, Gastrin/cholecystokinin type B receptor (Homo sapiens, UniProt P32239)
T3 sequence (P32239 whole entry): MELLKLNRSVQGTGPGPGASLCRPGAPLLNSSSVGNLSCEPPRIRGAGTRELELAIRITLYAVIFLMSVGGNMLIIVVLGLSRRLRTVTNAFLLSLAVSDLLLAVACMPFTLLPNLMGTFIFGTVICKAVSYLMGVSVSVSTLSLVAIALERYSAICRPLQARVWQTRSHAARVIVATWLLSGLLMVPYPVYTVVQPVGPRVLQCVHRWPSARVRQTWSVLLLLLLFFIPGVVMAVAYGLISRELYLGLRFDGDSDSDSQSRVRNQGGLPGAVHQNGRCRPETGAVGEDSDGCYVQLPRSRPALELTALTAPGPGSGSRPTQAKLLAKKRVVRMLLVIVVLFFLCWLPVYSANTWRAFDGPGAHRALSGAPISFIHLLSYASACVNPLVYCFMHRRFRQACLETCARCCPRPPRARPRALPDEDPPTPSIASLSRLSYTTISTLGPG

[5] = molecular target: T4, Neuropeptide Y receptor type 1 (Homo sapiens, UniProt P25929)
T4 sequence (P25929 whole entry): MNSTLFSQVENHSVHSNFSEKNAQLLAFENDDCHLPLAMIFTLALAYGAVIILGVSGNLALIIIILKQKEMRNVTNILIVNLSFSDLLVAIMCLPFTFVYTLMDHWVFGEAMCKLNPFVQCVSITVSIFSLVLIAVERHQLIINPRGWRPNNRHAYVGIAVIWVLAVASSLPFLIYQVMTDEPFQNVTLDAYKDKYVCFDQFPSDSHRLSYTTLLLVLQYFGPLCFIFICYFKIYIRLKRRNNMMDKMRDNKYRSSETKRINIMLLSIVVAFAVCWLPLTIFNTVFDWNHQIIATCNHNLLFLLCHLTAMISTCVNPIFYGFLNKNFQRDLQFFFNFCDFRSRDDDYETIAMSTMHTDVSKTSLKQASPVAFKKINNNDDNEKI

[6] = molecular target: T5, Glucocorticoid receptor (Homo sapiens, UniProt P04150)
T5 sequence (P04150 whole entry): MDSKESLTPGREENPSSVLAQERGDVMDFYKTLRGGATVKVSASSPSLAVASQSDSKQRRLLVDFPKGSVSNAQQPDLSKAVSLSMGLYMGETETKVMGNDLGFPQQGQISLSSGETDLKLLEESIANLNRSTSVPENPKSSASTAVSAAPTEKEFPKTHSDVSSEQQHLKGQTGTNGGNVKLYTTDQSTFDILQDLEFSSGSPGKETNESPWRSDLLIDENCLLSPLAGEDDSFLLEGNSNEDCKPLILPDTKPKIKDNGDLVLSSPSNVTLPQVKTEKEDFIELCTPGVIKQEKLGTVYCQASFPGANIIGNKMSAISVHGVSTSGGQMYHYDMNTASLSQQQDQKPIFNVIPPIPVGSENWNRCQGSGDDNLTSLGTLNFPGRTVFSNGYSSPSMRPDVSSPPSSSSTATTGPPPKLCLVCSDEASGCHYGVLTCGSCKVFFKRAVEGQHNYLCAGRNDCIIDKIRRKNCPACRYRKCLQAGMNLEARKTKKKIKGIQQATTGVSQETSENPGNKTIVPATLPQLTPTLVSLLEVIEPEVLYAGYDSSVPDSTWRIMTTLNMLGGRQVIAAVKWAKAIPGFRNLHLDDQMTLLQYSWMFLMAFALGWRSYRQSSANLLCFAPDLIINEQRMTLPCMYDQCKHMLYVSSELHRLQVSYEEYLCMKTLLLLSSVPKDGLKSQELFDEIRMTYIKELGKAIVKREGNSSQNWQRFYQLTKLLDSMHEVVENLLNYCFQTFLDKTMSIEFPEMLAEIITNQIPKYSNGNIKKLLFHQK
Note: assay procedure not described here.

Sequence of Sodium-dependent dopamine transporter (Q01959 whole entry): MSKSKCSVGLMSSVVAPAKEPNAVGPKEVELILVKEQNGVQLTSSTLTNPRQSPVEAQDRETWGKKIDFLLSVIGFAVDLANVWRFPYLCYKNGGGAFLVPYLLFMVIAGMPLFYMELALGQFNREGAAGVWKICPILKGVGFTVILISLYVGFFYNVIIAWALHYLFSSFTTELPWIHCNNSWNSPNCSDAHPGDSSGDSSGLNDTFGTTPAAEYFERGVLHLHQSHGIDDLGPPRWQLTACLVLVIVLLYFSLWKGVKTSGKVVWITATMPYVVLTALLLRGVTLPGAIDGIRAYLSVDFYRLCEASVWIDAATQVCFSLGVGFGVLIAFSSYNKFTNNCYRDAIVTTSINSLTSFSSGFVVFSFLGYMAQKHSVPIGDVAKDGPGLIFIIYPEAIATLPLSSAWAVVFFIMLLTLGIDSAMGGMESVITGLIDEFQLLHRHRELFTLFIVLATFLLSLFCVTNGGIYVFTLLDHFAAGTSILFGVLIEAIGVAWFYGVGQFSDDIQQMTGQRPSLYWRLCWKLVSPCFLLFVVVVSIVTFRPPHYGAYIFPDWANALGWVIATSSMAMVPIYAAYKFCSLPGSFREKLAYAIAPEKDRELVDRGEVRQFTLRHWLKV

Compound | AC50 [1] [µM] | AC50 [2] [µM] | AC50 [3] [µM] | AC50 [4] [µM] | AC50 [5] [µM] | AC50 [6] [µM]
C#CCN(C)Cc1ccccc1 [PARGYLINE] | > 30 | > 30 | – | – | – | –
CC(C)(CO)c1cc2cc(NC(=O)C3(c4ccc5c(c4)OC(F)(F)O5)CC3)c(F)cc2n1C[C@@H](O)CO [TEZACAFTOR] | > 30 | – | > 30 | – | – | –
CC[N+](CC)(CCNC(=O)C(=O)NCC[N+](CC)(CC)Cc1ccccc1Cl)Cc1ccccc1Cl [AMBENONIUM] | 1.6 | – | > 30 | > 30 | > 30 | –
NCCCCCC(=O)O [AMINOCAPROIC ACID] | – | – | 12.7 | – | > 10 | > 10
CCN(CCO)CCCC(C)Nc1ccnc2cc(Cl)ccc12 (stereo not given) [HYDROXYCHLOROQUINE] | – | – | > 10 | – | > 10 | > 10
NCCCNCCSP(=O)(O)O [AMIFOSTINE] | – | – | > 30 | > 30 | > 30 | > 30
OCCOCCN1CCN(C(c2ccccc2)c2ccc(Cl)cc2)CC1 (stereo not given) [HYDROXYZINE] | > 10 | – | > 10 | > 30 | > 30 | –
CN1CC2c3ccccc3Oc3ccc(Cl)cc3C2C1 (stereo not given) [ASENAPINE] | > 30 | – | 11 | – | – | –
COc1cc2c(cc1OC)C1CC(=O)C(CC(C)C)CN1CC2 (stereo not given) [TETRABENAZINE] | > 30 | – | > 30 | – | – | –
O=C(O)[C@H]1/C(=C/CO)O[C@@H]2CC(=O)N21 [CLAVULANIC ACID] | > 30 | – | > 30 | – | – | –
C[C@H](CCC(=O)O)[C@H]1CC[C@H]2[C@@H]3[C@H](O)C[C@@H]4C[C@H](O)CC[C@]4(C)[C@H]3CC[C@]12C [CHENODIOL] | > 30 | – | > 30 | – | – | –
C[C@@H](CN1CC(=O)NC(=O)C1)N1CC(=O)NC(=O)C1 [DEXRAZOXANE] | – | > 30 | – | – | – | –
COc1cccc2c1C(=O)c1c(O)c3c(c(O)c1C2=O)C[C@@](O)(C(=O)CO)C[C@@H]3O[C@H]1C[C@H](N)[C@H](O[C@@H]2CCCCO2)[C@H](C)O1 [PIRARUBICIN] | – | > 30 | – | – | – | –
CC(C)NCC(O)COc1ccc(CC(N)=O)cc1 (stereo not given) [ATENOLOL] | – | – | – | > 30 | > 30 | –
c1cnc2cc3c(cc2n1)[C@@H]1CNC[C@H]3C1 [VARENICLINE] | > 30 | – | > 30 | – | – | –
C=CC1=C(C(=O)O)N2C(=O)[C@@H](NC(=O)/C(=N\O)c3csc(N)n3)[C@H]2SC1 | > 10 | – | > 30 | > 30 | > 30 | –
CO[C@@]1(NC(=O)C(C(=O)O)c2ccc(O)cc2)C(=O)N2C(C(=O)O)=C(CSc3nnnn3C)CO[C@@H]21 (stereo not given in full) [MOXALACTAM] | – | > 30 | – | – | – | –
C[C@H](Nc1ncnc2[nH]cnc12)c1cc2cccc(Cl)c2c(=O)n1-c1ccccc1 [DUVELISIB] | > 30 | > 30 | > 30 | – | – | –
C[C@H](CS)C(=O)N1CCC[C@H]1C(=O)O [CAPTOPRIL] | – | – | > 30 | > 30 | > 30 | > 30
CNC1(C)C2CCC(C2)C1(C)C (stereo not given) [MECAMYLAMINE] | > 10 | – | > 10 | – | > 10 | > 10

Compound | AC50 [1] [µM] | AC50 [2] [µM] | AC50 [3] [µM] | AC50 [4] [µM] | AC50 [5] [µM] | AC50 [6] [µM]
O=NN(CCCl)C(=O)NC1CCCCC1 [LOMUSTINE] | – | > 30 | – | – | – | –
O=C(O)COC(=O)Cc1ccccc1Nc1c(Cl)cccc1Cl [ACECLOFENAC] | – | – | > 30 | > 30 | > 30 | –
Nc1c2c(nc3ccccc13)CCCC2O (stereo not given) [VELNACRINE] | > 30 | – | > 30 | – | – | –
CCOc1ccccc1OCCN[C@H](C)Cc1ccc(OC)c(S(N)(=O)=O)c1 [TAMSULOSIN] | > 10 | – | > 30 | > 30 | > 30 | –
COC(=O)CCc1ccc(OCC(O)CNC(C)C)cc1 (stereo not given) [ESMOLOL] | – | – | > 30 | > 30 | > 30 | > 30
CCC[C@@]1(CCc2ccccc2)CC(O)=C([C@H](CC)c2cccc(NS(=O)(=O)c3ccc(C(F)(F)F)cn3)c2)C(=O)O1 | > 30 | – | 27 | – | – | –
Nc1nnc(-c2cccc(Cl)c2Cl)c(N)n1 [LAMOTRIGINE] | – | – | > 10 | > 30 | > 30 | –
CCC1(c2ccccc2)C(=O)NCNC1=O [PRIMIDONE] | – | – | > 10 | – | > 10 | > 10
CO[C@@H]1[C@@H](OC(N)=O)[C@@H](O)[C@H](Oc2ccc3c(O)c(NC(=O)c4ccc(O)c(CC=C(C)C)c4)c(=O)oc3c2C)OC1(C)C [NOVOBIOCIN] | > 30 | – | > 30 | – | – | –
CC(=O)NC[C@H]1CN(c2ccc(N3CCOCC3)c(F)c2)C(=O)O1 [LINEZOLID] | > 30 | – | – | > 30 | > 30 | > 30
CCOCC(O)COc1ccc(NC(=O)CC[S+](C)C)cc1 (stereo not given) | > 30 | – | > 30 | – | – | –
CCCCCCCCCCCCCCCC(=O)OC[C@H](COP(=O)([O-])OCC[N+](C)(C)C)OC(=O)CCCCCCCCCCCCCCC [COLFOSCERIL PALMITATE] | – | > 30 | – | – | – | –
O=c1[nH]cc(F)c(=O)[nH]1 [FLUOROURACIL] | – | > 30 | > 30 | > 30 | > 30 | > 30
O=C(c1ccccc1)c1ccc2n1CCC2C(=O)O (stereo not given) [KETOROLAC] | – | – | > 10 | – | > 10 | –
C[C@@H](O)[C@H]1C(=O)N2C(C(=O)O)=C(SCCN=CN)C[C@H]12 [IMIPENEM ANHYDROUS] | 260 | – | > 300 | – | – | –
O=C(Cc1cccs1)N[C@@H]1C(=O)N2C(C(=O)[O-])=C(C[n+]3ccccc3)CS[C@H]12 [CEPHALORIDINE] | > 30 | > 30 | – | – | – | –
CN(C)CCc1c[nH]c2ccc(CS(=O)(=O)N3CCCC3)cc12 [ALMOTRIPTAN] | > 30 | – | > 30 | > 30 | > 30 | –
C[C@]12CCC(=O)C=C1CC[C@H]1[C@@H]3CC[C@](O)(C(=O)CO)[C@@]3(C)C[C@H](O)[C@@]12F [FLUDROCORTISONE] | > 10 | – | > 30 | > 30 | > 30 | –
O=C(O)[C@@H](S)[C@@H](S)C(=O)O | – | > 30 | – | – | – | –
Cn1cnc2c(F)c(Nc3ccc(Br)cc3F)c(C(=O)NOCCO)cc21 [BINIMETINIB] | > 30 | – | > 30 | – | – | –
